According to ChEMBL document CHEMBL5346954, “Rational Design of RNA Demethylase FTO Inhibitors with Enhanced Antileukemia Drug-Like Properties” (J Med Chem, 2023):
In brackets after ≈: the same amount, converted by molar mass. Activity calls are given as the source filed them. No cut-off for these calls is given here.

Experiments:
[1] = Metabolic stability in human liver microsomes assessed as half life; format: ADME, Microsome
[2] = target: T1, Alpha-ketoglutarate-dependent dioxygenase FTO (Homo sapiens, UniProt Q9C0B1); test: Inhibition of FTO (unknown origin) using (5'-AUUGUCA(M6A)CAGCAGC-3') as substrate incubated for 2 hrs by dot-blot assay
Target sequence in this assay (Q9C0B1 whole entry): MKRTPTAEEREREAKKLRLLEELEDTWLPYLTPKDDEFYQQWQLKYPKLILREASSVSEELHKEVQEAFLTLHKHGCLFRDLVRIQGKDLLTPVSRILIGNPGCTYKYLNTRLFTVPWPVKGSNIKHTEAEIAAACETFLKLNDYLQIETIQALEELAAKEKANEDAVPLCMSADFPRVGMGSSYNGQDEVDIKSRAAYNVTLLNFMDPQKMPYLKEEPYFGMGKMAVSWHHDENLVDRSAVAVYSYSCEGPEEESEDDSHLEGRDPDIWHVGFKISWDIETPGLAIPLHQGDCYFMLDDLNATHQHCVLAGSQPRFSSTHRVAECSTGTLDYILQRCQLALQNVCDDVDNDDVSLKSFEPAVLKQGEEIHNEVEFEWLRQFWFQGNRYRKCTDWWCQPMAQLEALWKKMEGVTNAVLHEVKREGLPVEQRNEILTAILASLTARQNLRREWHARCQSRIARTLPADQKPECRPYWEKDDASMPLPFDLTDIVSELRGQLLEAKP

[3] = target: T1, Alpha-ketoglutarate-dependent dioxygenase FTO; test: Inhibition of FTO in human NB4 cells assessed as increase in abundance of m6A on RNA at 5 to 20 uM incubated for 48 hrs by dot-blot assay; format: cell-based; settings: dose 5-20 µM
Target sequence in this assay (Q9C0B1 whole entry, looked up): as the sequence (Q9C0B1 whole entry) above

[4] = target: T1, Alpha-ketoglutarate-dependent dioxygenase FTO; test: Inhibition of FTO in human MOLM-13 cells assessed as upregulation RARA protein level at 5 to 10 uM incubated for 48 hrs by Western blot analysis; format: cell-based; settings: dose 5-10 µM
Target sequence in this assay (Q9C0B1 whole entry, looked up): as the sequence (Q9C0B1 whole entry) above

[5] = target: T1, Alpha-ketoglutarate-dependent dioxygenase FTO; test: Inhibition of FTO in human MOLM-13 cells assessed as increase in abundance of m6A on RNA at 5 to 20 uM incubated for 48 hrs by dot-blot assay; format: cell-based; settings: dose 5-20 µM
Target sequence in this assay (Q9C0B1 whole entry, looked up): as the sequence (Q9C0B1 whole entry) above

[6] = target: RNA demethylase ALKBH5 (Homo sapiens) (UniProt Q6P6C2); test: Inhibition of ALKBH5 (unknown origin)
[7] = Cmax in ICR mouse at 1 mg/kg, iv measured upto 24 hrs by LC-MS/MS analysis; format: ADME, organism-based; set-up: time < 24 hrs, dose 1 mg/kg, route iv; settings: in vivo
MV4-11 [8] = test: Antitumor activity against human MV4-11 cells xenografted in BALB/c mouse assessed as reduction in tumor weight at 40 mg/kg, ip administered daily for 26 days; format: functional, organism-based; settings: time 26.0 day
[9] = Tmax in ICR mouse at 10 mg/kg, po measured upto 24 hrs by LC-MS/MS analysis; format: ADME, organism-based; settings: in vivo
MV4-11 [10] = test: Antiproliferative activity against human MV4-11 cells incubated for 72 hrs by CCK8 assay; format: functional, cell-based; settings: MV4-11, 72 h
[11] = Permeability of the compound by PAMPA; format: ADME; settings: read-out: permeability
[12] = target: T1, Alpha-ketoglutarate-dependent dioxygenase FTO; test: Inhibition of FTO in human MOLM-13 cells assessed as downregulation Myc RNA level at 5 to 10 uM incubated for 72 hrs by RT-qPCR analysis; format: cell-based; settings: dose 5-10 µM
Target sequence in this assay (Q9C0B1 whole entry, looked up): as the sequence (Q9C0B1 whole entry) above

[13] = Metabolic stability in mouse liver microsomes assessed as intrinsic clearance per mg of protein; format: ADME, Microsome; settings: read-out: CLH
[14] = AUC(0 to t) in ICR mouse at 10 mg/kg, po measured upto 24 hrs by LC-MS/MS analysis; format: ADME, organism-based; set-up: dose 10 mg/kg, time < 24 hrs, route po; settings: in vivo
KG-1 = test: Antiproliferative activity against human KG-1 cells incubated for 72 hrs by CCK8 assay; format: functional, cell-based; settings: KG-1, 72 h
[15] = target: T1, Alpha-ketoglutarate-dependent dioxygenase FTO; test: Inhibition of FTO in human MOLM-13 cells assessed as upregulation RARA RNA level at 5 to 10 uM incubated for 72 hrs by RT-qPCR analysis; format: cell-based; settings: dose 5-10 µM
Target sequence in this assay (Q9C0B1 whole entry, looked up): as the sequence (Q9C0B1 whole entry) above

[16] = AUC(0 to t) in ICR mouse at 1 mg/kg, iv measured upto 24 hrs by LC-MS/MS analysis; format: ADME, organism-based; set-up: time < 24 hrs, dose 1 mg/kg, route iv; settings: in vivo
[17] = target: T1, Alpha-ketoglutarate-dependent dioxygenase FTO; test: Inhibition of FTO (unknown origin) by PAGE based assay
Target sequence in this assay (Q9C0B1 whole entry): as above

MOLM-13 [18] = test: Antiproliferative activity against human MOLM-13 cells incubated for 72 hrs by CCK8 assay; format: functional, cell-based; settings: MOLM-13, 72 h
[19] = target: T2, Alpha-ketoglutarate-dependent dioxygenase alkB homolog 3 (Homo sapiens) (UniProt Q96Q83); test: Inhibition of ALKBH3 (unknown origin)
T2 sequence (whole entry): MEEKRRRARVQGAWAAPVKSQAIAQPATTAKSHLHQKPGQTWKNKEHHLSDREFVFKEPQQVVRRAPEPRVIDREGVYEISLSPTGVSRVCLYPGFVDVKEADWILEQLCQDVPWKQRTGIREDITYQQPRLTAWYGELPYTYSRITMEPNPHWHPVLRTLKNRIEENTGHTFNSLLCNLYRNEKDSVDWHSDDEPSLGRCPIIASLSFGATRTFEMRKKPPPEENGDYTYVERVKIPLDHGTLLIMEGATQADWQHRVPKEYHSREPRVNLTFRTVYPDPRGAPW

HEL = test: Antiproliferative activity against HEL cells incubated for 72 hrs by CCK8 assay; format: functional, cell-based; settings: Homo sapiens
NB-4 [20] = test: Antiproliferative activity against human NB4 cells incubated for 72 hrs by CCK8 assay; format: functional, cell-based; settings: NB-4, 72 h
[21] = Tmax in ICR mouse at 1 mg/kg, iv measured upto 24 hrs by LC-MS/MS analysis; format: ADME, organism-based; settings: in vivo
MOLM-13 [22] = test: Inhibition of colony formation in human MOLM-13 cells incubated for 14 days by nitroblue tetrazolium chloride staining based assay; format: functional, cell-based; settings: time 14.0 day
[23] = target: T1, Alpha-ketoglutarate-dependent dioxygenase FTO; test: Inhibition of FTO in human MOLM-13 cells assessed as downregulation Myc protein level at 5 to 10 uM incubated for 48 hrs by Western blot analysis; format: cell-based; settings: dose 5-10 µM
Target sequence in this assay (Q9C0B1 whole entry, looked up): as the sequence (Q9C0B1 whole entry) above

MV4-11 [24] = test: Antitumor activity against human MV4-11 cells xenografted in BALB/c mouse assessed as reduction in tumor volume at 40 mg/kg, ip administered daily for 26 days; format: functional, organism-based; settings: time 26.0 day
[25] = Metabolic stability in mouse liver microsomes assessed as half life; format: ADME, Microsome
[26] = AUC(0 to infinity) in ICR mouse at 1 mg/kg, iv measured upto 24 hrs by LC-MS/MS analysis; format: ADME, organism-based; set-up: dose 1 mg/kg, time < 24 hrs, route iv; settings: in vivo
[27] = Toxicity in BALB/c mouse xenografted with human MV4-11 cells assessed as body weight loss at 40 mg/kg, ip administered daily for 26 days; format: organism-based; settings: in vivo, 624 h, time 26 day
THP-1 = test: Antiproliferative activity against human THP-1 cells incubated for 72 hrs by CCK8 assay; format: functional, cell-based; settings: THP-1, 72 h
[28] = Oral bioavailability in ICR mouse at 10 mg/kg measured upto 24 hrs by LC-MS/MS analysis; format: ADME, organism-based; settings: in vivo
Mus musculus = test: In vivo inhibition of FTO in human MV4-11 cells xenografted in BALB/c mouse assessed as increase in m6A abundance at 40 mg/kg, ip administered daily for 26 days; format: functional, organism-based; settings: time 26.0 day
[29] = Solubility of the compound in PBS at pH 7.4; format: physicochemical
[30] = Cmax in ICR mouse at 10 mg/kg, po measured upto 24 hrs by LC-MS/MS analysis; format: ADME, organism-based; set-up: dose 10 mg/kg, time < 24 hrs, route po; settings: in vivo
[31] = target: T1, Alpha-ketoglutarate-dependent dioxygenase FTO; test: Inhibition of FTO (unknown origin)
Target sequence in this assay (Q9C0B1 whole entry): as the sequence (Q9C0B1 whole entry) above

[32] = Metabolic stability in human liver microsomes assessed as intrinsic clearance per mg of protein; format: ADME, Microsome; settings: read-out: CLH
NB-4 [33] = test: Inhibition of colony formation in human NB4 cells incubated for 14 days by nitroblue tetrazolium chloride staining based assay; format: functional, cell-based; settings: time 14.0 day
[34] = AUC(0 to infinity) in ICR mouse at 10 mg/kg, po measured upto 24 hrs by LC-MS/MS analysis; format: ADME, organism-based; set-up: time < 24 hrs, dose 10 mg/kg, route po; settings: in vivo

RNA demethylase ALKBH5 (Homo sapiens), sequence (Q6P6C2 2-394 limits assumed): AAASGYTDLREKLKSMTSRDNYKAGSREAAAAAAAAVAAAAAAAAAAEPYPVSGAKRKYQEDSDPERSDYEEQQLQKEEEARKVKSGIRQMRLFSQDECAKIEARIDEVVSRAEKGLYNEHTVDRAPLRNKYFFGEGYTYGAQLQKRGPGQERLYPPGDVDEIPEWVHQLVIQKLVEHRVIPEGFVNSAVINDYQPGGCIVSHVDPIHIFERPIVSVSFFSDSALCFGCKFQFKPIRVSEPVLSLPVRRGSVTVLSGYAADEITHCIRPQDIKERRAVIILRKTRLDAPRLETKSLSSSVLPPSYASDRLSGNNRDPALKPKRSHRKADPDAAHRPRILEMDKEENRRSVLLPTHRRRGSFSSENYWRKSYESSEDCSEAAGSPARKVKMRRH

## Cc1noc(C)c1-c1cc(Cl)c(Nc2cccc(CN3CCCOCC3)c2C(=O)O)c(C2CC2)c1
[1]
  half-life: 1.53 h
[2]
  IC50: 120 nM
[3]
  inhibition: Active
[4]
  inhibition: Active
[5]
  inhibition: Active
[6]
  inhibition: inactive
[7]
  Cmax: 3700 ng/mL
MV4-11 [8]
  Activity: Active
[9]
  Tmax: 0.5 h
MV4-11 [10]
  IC50: 3400 nM
[11]
  Papp: 21.4 ×10⁻⁶ cm/s
[12]
  inhibition: Active
[13]
  microsomal CLint: 13.3 µL/min/mg
[14]
  AUC(0-t) at 24 h: 80500 ng·h/mL
KG-1
  IC50: 4100 nM
[15]
  inhibition: Active
[16]
  AUC(0-t) at 24 h: 46200 ng·h/mL
[17]
  IC50: 2300 nM
MOLM-13 [18]
  IC50: 1700 nM
[19]
  inhibition: inactive
HEL
  IC50: 10300 nM
NB-4 [20]
  IC50: 1500 nM
[21]
  Tmax: 2.5 h
MOLM-13 [22]
  inhibition: Dose-Dependent Effect
[23]
  inhibition: Active
MV4-11 [24]
  Activity: Active
[25]
  half-life: > 3.08 h
[26]
  AUC(0-inf): 55600 ng·h/mL
[27]
  Activity: Non-Toxic
THP-1
  IC50: 6000 nM
[28]
  bioavailability: 18.5%
Mus musculus
  inhibition: Active
[29]
  solubility: 7.6 µM (≈ 3.77 µg/mL)
[30]
  Cmax: 7200 ng/mL
[31]
  IC50: 2300 nM
[32]
  microsomal CLint: 15.1 µL/min/mg
NB-4 [33]
  inhibition: Dose-Dependent Effect
[34]
  AUC(0-inf): 103000 ng·h/mL

## Cc1noc(C)c1-c1cc(F)c(Nc2ccccc2C(=O)O)c(Cl)c1
[1]
  half-life: > 3.08 h
[7]
  Cmax: 5400 ng/mL
[9]
  Tmax: 1 h
[11]
  Papp: 17.4 ×10⁻⁶ cm/s
[13]
  microsomal CLint: < 7.5 µL/min/mg
[14]
  AUC(0-t) at 24 h: 63600 ng·h/mL
[16]
  AUC(0-t) at 24 h: 36200 ng·h/mL
[21]
  Tmax: 1.5 h
[25]
  half-life: 1.76 h
[26]
  AUC(0-inf): 39200 ng·h/mL
[28]
  bioavailability: 17.5%
[29]
  solubility: 275 µM (≈ 99.1 µg/mL)
[30]
  Cmax: 8500 ng/mL
[32]
  microsomal CLint: < 7.5 µL/min/mg
[34]
  AUC(0-inf): 68800 ng·h/mL

## CCc1cc(-c2ccncc2)cc(CC)c1Nc1cccc(CN(CC)CCN2CCOCC2)c1C(=O)O
[31]
  IC50: 6800 nM

## CCc1cc(-c2ccncc2)cc(CC)c1Nc1cccc(CN2CCCOCC2)c1C(=O)O
MOLM-13 [18]
  IC50: 1500 nM
NB-4 [20]
  IC50: 1000 nM

## Cc1noc(C)c1-c1cc(Cl)c(Nc2cccc(CN3CCCOCC3)c2C(=O)O)c(C(F)(F)F)c1
[11]
  Papp: 14.1 ×10⁻⁶ cm/s
MOLM-13 [18]
  IC50: 2200 nM
NB-4 [20]
  IC50: 2300 nM
[29]
  solubility: 42.6 µM (≈ 22.3 µg/mL)
[31]
  IC50: 6100 nM

## CCc1cc(-c2c(C)noc2C)cc(CC)c1Nc1cccc(CN2CCCOCC2)c1C(=O)O
MOLM-13 [18]
  IC50: 1500 nM
NB-4 [20]
  IC50: 1000 nM

## O=C(O)c1c(CN2CCCOCC2)cccc1Nc1c(C2CC2)cc(-c2ccncc2)cc1C1CC1
[31]
  IC50: 2600 nM

## Cc1n[nH]c(C)c1-c1cc(Cl)c(Nc2cccc(CN3CCCOCC3)c2C(=O)O)c(Cl)c1
[11]
  Papp: 4.5 ×10⁻⁶ cm/s
MOLM-13 [18]
  IC50: 1500 nM
NB-4 [20]
  IC50: 1000 nM
[29]
  solubility: 18.1 µM (≈ 8.86 µg/mL)
[31]
  IC50: 4000 nM

## CCc1cc(-c2ccncc2)cc(CC)c1Nc1cccc(CN2CC(N(C)C)C2)c1C(=O)O
MOLM-13 [18]
  IC50: 1500 nM
NB-4 [20]
  IC50: 1000 nM

## CCc1cc(-c2ccncc2)cc(CC)c1Nc1cccc(Cn2ccnc2)c1C(=O)O
[31]
  IC50: 6500 nM

## Cc1noc(C)c1-c1cc(F)c(Nc2cccc(CN3CCCOCC3)c2C(=O)O)c(F)c1F
MOLM-13 [18]
  IC50: 1500 nM
NB-4 [20]
  IC50: 1000 nM

## CCc1cc(-c2ccncc2)cc(CC)c1Nc1cccc(CN(CCOC)CCOC)c1C(=O)O
[31]
  IC50: 6300 nM

## Cc1noc(C)c1-c1c(F)c(F)c(Nc2cccc(CN3CCCOCC3)c2C(=O)O)c(F)c1F
MOLM-13 [18]
  IC50: 1500 nM
NB-4 [20]
  IC50: 1000 nM

## O=C(O)c1c(CN2CCCOCC2)cccc1Nc1c(Cl)cc(-c2nnn[nH]2)cc1Cl
[11]
  Papp: < 0.001 ×10⁻⁶ cm/s
[29]
  solubility: 305 µM (≈ 141 µg/mL)

## CCc1cc(-c2ccncc2)cc(CC)c1Nc1cccc(CN(CC)CC)c1C(=O)O
[31]
  IC50: 7600 nM
